Measurements published in PMC6974524 (Frontiers in Microbiology, 2020).
Values after ≈ are worked out from the molar mass of the structure shown.

Columns and labels:
Mtb-KD = type: cell-based, Mycobacterium tuberculosis
clinical Mtb strains = assay: microbe, parasite or virus in culture; type: cell-based, Mycobacterium tuberculosis; conditions: Mycobacterium tuberculosis; range over standard and clinical strains (abstract); read-out: MIC for the standard and clinical drug-resistant Mtb strains

SMILES	MIC, ddlA knocked-down (Mtb-KD) [µg/mL]	MIC, ddlA overexpressed (Mtb-KD) [µg/mL]	MIC (clinical Mtb strains) [µg/mL]
N[C@@H]1CON=C1O [DCS, D-cycloserine, reference compound]	1 (≈ 9.79 µM)	32 (≈ 313 µM)	
OC1(c2ccc(OC(F)F)cc2)C[N+](c2ccccc2)=C2CCCCN21 (centres unmarked) [IMB-0283]	0.25	2	0.25 to 4
